Reference: ChEMBL document CHEMBL5291721, “A preclinical secondary pharmacology resource illuminates target-adverse drug reaction associations of marketed drugs” (Nat Commun, 2023)

Assays:
Cannabinoid receptor 1 = Cannabinoid receptor 1 (Homo sapiens, UniProt P21554); assay type: functional, cell-based
[1] = target: T1, Alpha-2A adrenergic receptor (Homo sapiens, UniProt P08913); assay type: functional, cell-based
T1 sequence (P08913 whole entry): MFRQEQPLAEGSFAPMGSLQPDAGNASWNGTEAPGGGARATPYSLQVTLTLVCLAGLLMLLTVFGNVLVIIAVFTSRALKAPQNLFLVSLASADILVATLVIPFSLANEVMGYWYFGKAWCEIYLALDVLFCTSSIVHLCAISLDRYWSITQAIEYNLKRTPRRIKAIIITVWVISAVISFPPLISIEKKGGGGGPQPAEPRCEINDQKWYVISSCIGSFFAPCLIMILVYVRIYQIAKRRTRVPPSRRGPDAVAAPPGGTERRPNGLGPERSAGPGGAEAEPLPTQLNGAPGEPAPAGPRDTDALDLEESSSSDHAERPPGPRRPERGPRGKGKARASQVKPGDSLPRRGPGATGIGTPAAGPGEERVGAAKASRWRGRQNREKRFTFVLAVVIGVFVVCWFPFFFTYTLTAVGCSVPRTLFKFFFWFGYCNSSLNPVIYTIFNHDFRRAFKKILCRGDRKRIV

[2] = target: T2, 5-hydroxytryptamine receptor 3A (Homo sapiens, UniProt P46098); assay type: functional
T2 sequence (P46098 whole entry): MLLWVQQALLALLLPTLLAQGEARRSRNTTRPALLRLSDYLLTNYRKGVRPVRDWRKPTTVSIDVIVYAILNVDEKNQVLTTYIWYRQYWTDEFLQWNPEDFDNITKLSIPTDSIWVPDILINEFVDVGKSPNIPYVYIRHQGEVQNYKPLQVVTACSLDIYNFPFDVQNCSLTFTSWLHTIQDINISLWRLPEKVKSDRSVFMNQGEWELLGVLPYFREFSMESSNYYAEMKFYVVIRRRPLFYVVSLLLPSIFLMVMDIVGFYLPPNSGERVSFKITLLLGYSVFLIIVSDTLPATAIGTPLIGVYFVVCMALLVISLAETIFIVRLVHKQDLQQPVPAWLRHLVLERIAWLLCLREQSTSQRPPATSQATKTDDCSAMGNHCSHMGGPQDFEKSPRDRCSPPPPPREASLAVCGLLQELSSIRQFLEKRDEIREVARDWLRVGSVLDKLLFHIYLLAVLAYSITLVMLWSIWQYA

[3] = target: Beta-1 adrenergic receptor (Homo sapiens, UniProt P08588); assay type: functional
Beta-1 adrenergic receptor, sequence (P08588 whole entry): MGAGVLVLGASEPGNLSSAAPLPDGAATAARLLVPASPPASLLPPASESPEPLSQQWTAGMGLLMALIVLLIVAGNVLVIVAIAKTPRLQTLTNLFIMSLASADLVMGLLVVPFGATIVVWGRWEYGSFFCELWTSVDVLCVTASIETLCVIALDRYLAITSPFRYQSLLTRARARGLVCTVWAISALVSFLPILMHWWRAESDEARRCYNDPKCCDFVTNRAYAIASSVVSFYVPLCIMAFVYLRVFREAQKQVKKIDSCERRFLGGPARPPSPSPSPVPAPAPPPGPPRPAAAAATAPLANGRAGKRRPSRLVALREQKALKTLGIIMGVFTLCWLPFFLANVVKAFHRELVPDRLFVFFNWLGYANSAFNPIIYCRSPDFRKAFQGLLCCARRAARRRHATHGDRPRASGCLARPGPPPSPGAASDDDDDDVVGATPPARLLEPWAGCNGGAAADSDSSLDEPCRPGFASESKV

[4] = target: T3, Muscarinic acetylcholine receptor M1 (Homo sapiens, UniProt P11229); assay type: functional
T3 sequence (P11229 whole entry): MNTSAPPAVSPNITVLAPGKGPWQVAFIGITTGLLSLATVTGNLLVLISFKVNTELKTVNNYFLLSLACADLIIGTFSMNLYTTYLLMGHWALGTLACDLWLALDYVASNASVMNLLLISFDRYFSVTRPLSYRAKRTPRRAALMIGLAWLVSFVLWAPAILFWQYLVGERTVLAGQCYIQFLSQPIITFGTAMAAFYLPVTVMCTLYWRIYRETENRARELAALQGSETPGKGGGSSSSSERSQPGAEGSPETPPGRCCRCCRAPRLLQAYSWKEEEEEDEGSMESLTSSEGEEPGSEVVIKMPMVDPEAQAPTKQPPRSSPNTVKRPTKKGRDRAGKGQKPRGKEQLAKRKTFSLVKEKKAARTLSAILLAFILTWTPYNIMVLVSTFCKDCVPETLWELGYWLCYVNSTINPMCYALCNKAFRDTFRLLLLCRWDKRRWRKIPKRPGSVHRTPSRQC

Progesterone receptor = target: T4, Progesterone receptor (Homo sapiens, UniProt P06401); assay type: functional
T4 sequence (P06401 whole entry): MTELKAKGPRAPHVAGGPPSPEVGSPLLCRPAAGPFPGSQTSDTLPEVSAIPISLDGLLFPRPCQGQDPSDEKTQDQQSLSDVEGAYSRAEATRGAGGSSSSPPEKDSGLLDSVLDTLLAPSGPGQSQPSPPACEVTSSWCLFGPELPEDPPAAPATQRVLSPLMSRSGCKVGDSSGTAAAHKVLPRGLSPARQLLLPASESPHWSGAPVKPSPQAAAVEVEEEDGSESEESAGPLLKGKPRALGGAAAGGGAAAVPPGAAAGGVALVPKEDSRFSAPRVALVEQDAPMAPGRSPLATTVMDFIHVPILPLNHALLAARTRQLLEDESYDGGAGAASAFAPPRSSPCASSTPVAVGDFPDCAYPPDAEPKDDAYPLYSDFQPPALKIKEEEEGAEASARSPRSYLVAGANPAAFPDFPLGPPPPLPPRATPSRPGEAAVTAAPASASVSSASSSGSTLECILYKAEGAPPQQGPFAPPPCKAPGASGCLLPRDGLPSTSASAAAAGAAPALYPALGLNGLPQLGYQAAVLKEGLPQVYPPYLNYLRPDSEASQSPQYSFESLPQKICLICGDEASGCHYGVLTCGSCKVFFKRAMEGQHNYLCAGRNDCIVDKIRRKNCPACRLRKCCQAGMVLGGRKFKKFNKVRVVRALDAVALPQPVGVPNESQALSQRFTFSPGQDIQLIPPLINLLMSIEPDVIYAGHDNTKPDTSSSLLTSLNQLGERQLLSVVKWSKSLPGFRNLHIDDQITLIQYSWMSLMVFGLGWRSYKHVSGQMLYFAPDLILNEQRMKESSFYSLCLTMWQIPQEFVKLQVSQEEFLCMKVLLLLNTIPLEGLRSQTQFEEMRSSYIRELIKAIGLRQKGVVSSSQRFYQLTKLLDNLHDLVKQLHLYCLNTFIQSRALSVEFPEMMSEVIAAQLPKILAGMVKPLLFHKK

Adenosine receptor A1 = target: T5, Adenosine receptor A1 (Homo sapiens, UniProt P30542)
T5 sequence (P30542 whole entry): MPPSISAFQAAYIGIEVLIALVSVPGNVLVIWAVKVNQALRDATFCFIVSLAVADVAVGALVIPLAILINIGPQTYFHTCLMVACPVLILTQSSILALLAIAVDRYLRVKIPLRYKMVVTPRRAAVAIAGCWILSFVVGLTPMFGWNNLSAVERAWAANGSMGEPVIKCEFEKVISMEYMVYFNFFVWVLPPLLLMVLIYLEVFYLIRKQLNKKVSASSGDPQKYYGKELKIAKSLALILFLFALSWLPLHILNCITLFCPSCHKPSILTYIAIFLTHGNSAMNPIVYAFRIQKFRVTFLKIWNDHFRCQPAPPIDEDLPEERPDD
Note: assay procedure not described here.

Cannabinoid receptor 1, sequence (P21554 whole entry): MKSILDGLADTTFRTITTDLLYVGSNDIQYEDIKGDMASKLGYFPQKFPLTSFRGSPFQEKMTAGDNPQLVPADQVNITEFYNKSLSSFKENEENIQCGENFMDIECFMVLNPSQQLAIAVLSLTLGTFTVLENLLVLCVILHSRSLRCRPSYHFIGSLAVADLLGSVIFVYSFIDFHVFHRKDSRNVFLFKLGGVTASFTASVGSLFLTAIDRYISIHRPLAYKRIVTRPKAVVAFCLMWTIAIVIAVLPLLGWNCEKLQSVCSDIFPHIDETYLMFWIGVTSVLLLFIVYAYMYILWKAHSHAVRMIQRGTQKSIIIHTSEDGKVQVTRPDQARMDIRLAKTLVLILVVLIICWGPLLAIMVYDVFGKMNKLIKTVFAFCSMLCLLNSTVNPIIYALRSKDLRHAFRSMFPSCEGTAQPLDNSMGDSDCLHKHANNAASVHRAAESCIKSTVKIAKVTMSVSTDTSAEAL

SMILES	AC50 (Cannabinoid receptor 1) [µM]	AC50 [1] [µM]	AC50 [2] [µM]	AC50 [3] [µM]	AC50 [4] [µM]	AC50 (Progesterone receptor) [µM]	AC50 (Adenosine receptor A1) [µM]
CC(C[N+](C)(C)C)OC(N)=O (stereo not given) [BETHANECHOL]	> 30	> 10	> 30	> 10	> 10	> 10	> 10
C/C(O)=C(\C#N)C(=O)Nc1ccc(C(F)(F)F)cc1 [TERIFLUNOMIDE]	> 30	> 30	> 30	> 30	> 30	> 30	> 30
CN1C(=O)C(O)N=C(c2ccccc2Cl)c2cc(Cl)ccc21 (stereo not given) [LORMETAZEPAM]	> 30	16	> 30	> 30	> 30	> 30	> 30
CCN(CC)C(=O)N[C@H]1C[C@@H]2c3cccc4[nH]cc(c34)C[C@H]2N(C)C1 [TERGURIDE]	> 30	> 30	> 30	3.2	> 30	> 30	> 30
CC(=O)O[C@H]1CC[C@@]2(C)C(=CC[C@@H]3[C@@H]2CC[C@]2(C)C(c4cccnc4)=CC[C@@H]32)C1 [ABIRATERONE ACETATE]	> 30	> 30	> 30	> 30	> 30	> 30	> 30
CCOC(=O)[C@H](CCc1ccccc1)N[C@@H](C)C(=O)N1C(=O)N(C)C[C@H]1C(=O)O	> 30	> 30	> 30	> 30	> 30	> 30	> 30
C=CCN1CCCC1CNC(=O)c1cc(S(N)(=O)=O)cc(OC)c1OC (stereo not given) [VERALIPRIDE]	> 30	> 30	> 30	> 30	> 30	> 30	> 30
CC(C)OC(=O)CCC/C=C\C[C@@H]1[C@@H](CC[C@@H](O)CCc2ccccc2)[C@H](O)C[C@@H]1O [LATANOPROST]	> 30	> 30	> 30	> 30	> 30	> 30	> 30
COc1ccc(-c2ccc3cc(C(=O)O)ccc3c2)cc1C12CC3CC(CC(C3)C1)C2	> 30	> 30	> 30	> 30	> 30	4.2	> 30
COc1cc2c(N)nc(N3CCN(C(=O)OCC(C)(C)O)CC3)nc2c(OC)c1OC [TRIMAZOSIN]	> 30	> 30	> 30	> 30	> 30	> 30	> 30
